# Measured values from US20140018347A1, “BENZOXAZEPINES AS INHIBITORS OF mTOR AND METHODS OF THEIR USE AND MANUFACTURE” (Exelixis, Inc., priority 2010, published 2014).
# Key:
# mTORC1 = mTORC1 (Homo sapiens, UniProt P42345); experiment: mTOR/GbL/Raptor (mTORC1) ELISA Assay; type: biochemical; settings: phosphorylation of 4E-BP1; 0.2 nM mTORC1, 10 μM ATP
# Description: The measurement of mTORC1 enzyme activity was performed in an ELISA assay format following the phosphorylation of 4E-BP1 protein. All experiments were performed in the 384-well format. Generally, 0.5 μL DMSO containing varying concentrations of the test compound was mixed with 15 μL enzyme solution. Kinase reactions were initiated with the addition of 15 μL of substrates-containing solution. The assay conditions were as follows; 0.2 nM mTORC1, 10 μM ATP and 50 nM NHis-tagged 4E-BP1 in 20 mM Hepes, pH 7.2, 1 mM DTT, 50 mM NaCl, 10 mM MnCl2, 0.02 mg/mL BSA, 0.01% CHAPS, 50 mM β-glycerophosphate. Following an incubation of 120 minutes at ambient temperature, 20 μL of the reaction volume was transferred to a Ni-Chelate-coated 384-well plate. The binding step of the 4E-BP1 protein proceeded for 60 minutes, followed by washing 4 times each with 50 μL of Tris-buffered saline solution (TBS). Anti-phospho-4E-BP1 rabbit-IgG (20 μL, 1:5000) in 5% BSA-TBST (0.2% Tween-20 in TBS) was added and further incubated for 60 minutes. Incubation with a secondary HRP-tagged anti-IgG was similarly performed after washing off the primary antibody (4 washes of 50 μL). Following the final wash step with TBST, 20 μL of SuperSignal ELISA Femto (Pierce Biotechnology) was added and the luminescence measured using an EnVision plate reader.
# PI3Kalpha = PI3Kalpha (Homo sapiens, UniProt P42336); experiment: PI3K Biochemical Assays (PI3K-alpha assay); settings: ATP consumption, luciferase-luciferin; 1 μM ATP, 10 μM PIP2
# PI3Kalpha, sequence (P42336 whole entry): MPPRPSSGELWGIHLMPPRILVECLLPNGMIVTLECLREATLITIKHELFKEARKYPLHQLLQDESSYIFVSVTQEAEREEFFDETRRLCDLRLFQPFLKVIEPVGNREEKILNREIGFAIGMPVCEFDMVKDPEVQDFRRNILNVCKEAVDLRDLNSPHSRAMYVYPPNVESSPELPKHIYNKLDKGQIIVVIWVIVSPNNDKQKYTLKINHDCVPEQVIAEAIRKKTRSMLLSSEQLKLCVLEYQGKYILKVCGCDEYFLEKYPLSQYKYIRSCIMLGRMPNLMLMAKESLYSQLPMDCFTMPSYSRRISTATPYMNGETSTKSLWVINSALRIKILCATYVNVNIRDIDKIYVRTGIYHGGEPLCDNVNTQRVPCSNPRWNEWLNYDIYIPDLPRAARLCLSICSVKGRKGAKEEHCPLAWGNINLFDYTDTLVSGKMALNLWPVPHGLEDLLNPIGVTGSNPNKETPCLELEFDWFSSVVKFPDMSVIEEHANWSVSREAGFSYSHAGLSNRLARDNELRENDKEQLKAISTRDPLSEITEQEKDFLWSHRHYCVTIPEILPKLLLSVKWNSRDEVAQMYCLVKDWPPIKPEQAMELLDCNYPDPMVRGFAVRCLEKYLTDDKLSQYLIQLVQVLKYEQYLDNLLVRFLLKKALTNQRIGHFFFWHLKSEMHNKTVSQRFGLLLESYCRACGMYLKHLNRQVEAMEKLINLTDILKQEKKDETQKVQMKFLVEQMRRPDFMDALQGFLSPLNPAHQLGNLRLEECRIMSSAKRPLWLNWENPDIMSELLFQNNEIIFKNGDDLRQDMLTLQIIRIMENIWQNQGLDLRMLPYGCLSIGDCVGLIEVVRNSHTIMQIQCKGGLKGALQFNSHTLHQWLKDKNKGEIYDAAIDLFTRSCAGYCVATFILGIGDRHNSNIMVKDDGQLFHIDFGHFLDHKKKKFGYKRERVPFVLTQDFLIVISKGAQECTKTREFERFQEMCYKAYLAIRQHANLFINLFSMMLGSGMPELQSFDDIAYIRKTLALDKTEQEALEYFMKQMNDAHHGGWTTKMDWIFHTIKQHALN
# PI3Kalpha, sequence (P27986 whole entry partner): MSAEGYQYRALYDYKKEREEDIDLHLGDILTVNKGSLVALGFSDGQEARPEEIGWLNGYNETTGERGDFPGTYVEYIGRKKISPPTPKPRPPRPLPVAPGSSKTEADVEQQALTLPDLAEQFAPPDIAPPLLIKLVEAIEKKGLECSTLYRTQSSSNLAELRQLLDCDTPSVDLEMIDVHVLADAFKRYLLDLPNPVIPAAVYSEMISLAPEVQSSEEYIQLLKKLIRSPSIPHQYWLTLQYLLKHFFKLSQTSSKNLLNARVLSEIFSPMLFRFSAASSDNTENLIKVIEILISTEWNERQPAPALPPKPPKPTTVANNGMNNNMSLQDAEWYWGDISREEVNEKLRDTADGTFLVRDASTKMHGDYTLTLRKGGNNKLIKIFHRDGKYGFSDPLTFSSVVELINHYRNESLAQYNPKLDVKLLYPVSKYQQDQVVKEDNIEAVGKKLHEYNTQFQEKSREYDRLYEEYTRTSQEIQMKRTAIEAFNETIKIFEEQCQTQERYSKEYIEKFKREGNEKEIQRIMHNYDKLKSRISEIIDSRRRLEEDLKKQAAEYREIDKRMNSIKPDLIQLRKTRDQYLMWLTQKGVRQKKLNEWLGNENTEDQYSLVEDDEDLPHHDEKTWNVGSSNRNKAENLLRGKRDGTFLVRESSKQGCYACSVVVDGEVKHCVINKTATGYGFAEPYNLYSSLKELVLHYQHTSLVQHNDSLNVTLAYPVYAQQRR
# Description: PI3Kn activity was measured as the percent of ATP consumed following the kinase reaction using luciferase-luciferin-coupled chemiluminescence. Reactions were conducted in 384-well white, medium binding microtiter plates (Greiner). Kinase reactions were initiated by combining test compounds, ATP, substrate (PIP2), and kinase in a 20 μL volume in a buffer solution. The standard PI3Kalpha assay buffer was composed 50 mM Tris, pH 7.5, 1 mM EGTA, 10 mM MgCl2, 1 mM DTT and 0.03% CHAPS. The standard assay concentrations for enzyme, ATP, and substrate were 3 nM, 1 μM, and 10 μM, respectively. The reaction mixture was incubated at ambient temperature for approximately 2 h. Following the kinase reaction, a 10 μL aliquot of luciferase-luciferin mix (Promega Kinase-Glo) was added and the chemiluminescence signal measured using a Victor2 or EnVision (Perkin Elmer). Total ATP consumption was limited to 40-60% and IC50 values of control compounds correlate well with literature references. Substituting PI3Kα with PI3Krβ, PI3Kγ, or PI3Kδ, the inhibitory activity of the compounds for the other isoforms of PI3K were measured. For the PI3Kβ and PI3Kδ assays, enzyme concentrations were 10 nM and 4 nM, respectively. For the PI3Kγ assay, enzyme concentration was 40 nM, the incubation time was 1 h, and the concentration of MgCl2 in the assay buffer was 5 mM.
IC50 (mTORC1) [µM],IC50 (PI3Kalpha) [µM],Compound
≤ 0.1,≤ 0.1,"COC(C)c1c(Cl)nc(N)nc1N1CCOc2ccc(-c3cnc4sc(N)nc4c3)cc2C1 (stereo not shown) [Compound 96, 6-(4-{2-amino-6-chloro-5-[1-(methyloxy)ethyl]pyrimidin-4-yl)-2,3,4,5-tetrahydro-1,4-benzoxazepin-7-yl)[1,3]thiazolo[5,4-b]pyridin-2-amine]"
≤ 0.1,0.1 to 0.5,"Cc1nc(CN(C)C)nc(N2CCOc3ccc(-c4cnc5sc(N)nc5c4)cc3C2)c1CC(C)C [Compound 36, 6-(4-{2-[(dimethylamino)methyl]-6-methyl-5-(2-methylpropyl)pyrimidin-4-yl}-2,3,4,5-tetrahydro-1,4-benzoxazepin-7-yl)[1,3]thiazolo[5,4-b]pyridin-2-amine]"
≤ 0.1,≤ 0.1,"C=CCc1c(Cl)nc(N)nc1N1CCOc2ccc(-c3cnc4sc(N)nc4c3)cc2C1 [Compound 76, 6-[4-(2-amino-6-chloro-5-prop-2-en-1-ylpyrimidin-4-yl)-2,3,4,5-tetrahydro-1,4-benzoxazepin-7-yl][1,3]thiazolo[5,4-b]pyridin-2-amine]"
≤ 0.1,≤ 0.1,"Cc1nc(CNCCF)nc(N2CCOc3ccc(-c4cnc5sc(N)nc5c4)cc3C2)c1C(C)C [Compound 82, 6-{4-[2-{[(2-fluoroethyl)amino]methyl}-6-methyl-5-(1-methylethyl)pyrimidin-4-yl]-2,3,4,5-tetrahydro-1,4-benzoxazepin-7-yl}[1,3]thiazolo[5,4-b]pyridin-2-amine]"
≤ 0.1,≤ 0.1,"C/C=C/c1c(Cl)nc(N)nc1N1CCOc2ccc(-c3cnc4sc(N)nc4c3)cc2C1 [Compound 75, 6-(4-{2-amino-6-chloro-5-[(1E)-prop-1-en-1-yl]pyrimidin-4-yl}-2,3,4,5-tetrahydro-1,4-benzoxazepin-7-yl)[1,3]thiazolo[5,4-b]pyridin-2-amine]"
0.1 to 0.5,≤ 0.1,"Cc1nc(N)nc(N2CCOc3ccc(-c4cnc5sc(N)nc5c4)cc3C2)c1C [Compound 5, 6-[4-(2-amino-5,6-dimethylpyrimidin-4-yl)-2,3,4,5-tetrahydro-1,4-benzoxazepin-7-yl][1,3]thiazolo[5,4-b]pyridin-2-amine]"
0.1 to 0.5,≤ 0.1,COc1nc(N)nc(N2CCOc3ccc(-c4cnc5sc(N)nc5c4)cc3C2)c1C [Compound 67]
0.1 to 0.5,0.5 to 2.5,"Nc1nc2cc(-c3ccc4c(c3)CN(c3ccnc([N+](=O)[O-])c3)CCO4)cnc2s1 [Compound 93, 6-[4-(2-nitropyridin-4-yl)-2,3,4,5-tetrahydro-1,4-benzoxazepin-7-yl][1,3]thiazolo[5,4-b]pyridin-2-amine]"
≤ 0.1,0.1 to 0.5,"Cc1nc(C#N)nc(N2CCOc3ccc(-c4cnc5sc(N)nc5c4)cc3C2)c1C(C)C [Compound 25, 4-[7-(2-amino[1,3]thiazolo[5,4-b]pyridin-6-yl)-2,3-dihydro-1,4-benzoxazepin-4(5H)-yl)-6-methyl-5-(1-methylethyl)pyrimidine-2-carbonitrile]"
0.1 to 0.5,≤ 0.1,"Cc1nc(CN(C)C)nc(N2CCOc3ccc(-c4cnc5sc(N)nc5c4)cc3C2)c1Cl [Compound 65, 6-(4-{5-chloro-2-[(dimethylamino)methyl]-6 methylpyrimidin-4-yl}-2,3,4,5-tetrahydro-1,4-benzoxazepin-7-yl)[1,3]thiazolo[5,4-b]pyridin-2-amine]"
≤ 0.1,≤ 0.1,"CC1CC(C)(C)Cc2c1nc(N)nc2N1CCOc2ccc(-c3cnc4sc(N)nc4c3)cc2C1 (stereo not shown) [Compound 57, 4-[7-(2-amino[1,3]thiazolo[5,4-b]pyridin-6-yl)-2,3-dihydro-1,4-benzoxazepin-4(5H)-yl]-6,6,8-trimethyl-5,6,7,8-tetrahydroquinazolin-2-amine]"
≤ 0.1,≤ 0.1,"Cc1nc(CN2CCCC2)nc(N2CCOc3ccc(-c4cnc5sc(N)nc5c4)cc3C2)c1C(C)C [Compound 28, 6-{4-[6-methyl-5-(1-methylethyl)-2-(pyrrolidin-1-ylmethyl)pyrimidin-4-yl]-2,3,4,5-tetrahydro-1,4-benzoxazepin-7-yl}[1,3]thiazolo[5,4-b]pyridin-2-amine]"
≤ 0.1,≤ 0.1,"CC1(C)CCc2nc(CC#N)nc(N3CCOc4ccc(-c5cnc6sc(N)nc6c5)cc4C3)c2C1 [Compound 60, {4-[7-(2-amino[1,3]thiazolo[5,4-b]pyridin-6-yl)-2,3-dihydro-1,4-benzoxazepin-4(5H)-yl]-6,6-dimethyl-5,6,7,8-tetrahydroquinazolin-2-yl}acetonitrile]"
0.1 to 0.5,≤ 0.1,"CCc1c(C)nc(CN(C)C)nc1N1CCOc2ccc(-c3cnc4sc(N)nc4c3)cc2C1 [Compound 1, 6-(4-{2-[(dimethylamino)methyl]-5-ethyl-6-methylpyrimidin-4-yl)-2,3,4,5-tetrahydro-1,4-benzoxazepin-7-yl)[1,3]thiazolo[5,4-b]pyridin-2-amine]"
0.1 to 0.5,≤ 0.1,"N#Cc1cnc(N2CCOc3ccc(-c4cnc5sc(N)nc5c4)cc3C2)nc1N [Compound 49, 4-amino-2-[7-(2-amino[1,3]thiazolo[5,4-b]pyridin-6-yl)-2,3-dihydro-1,4-benzoxazepin-4(5H)-yl]pyrimidine-5-carbonitrile]"
≤ 0.1,≤ 0.1,"CC[C@H]1CCc2c(nc(N)nc2N2CCOc3ccc(-c4cnc5sc(N)nc5c4)cc3C2)C1 [Compound 56, (7S)-4-[7-(2-amino[1,3]thiazolo[5,4-b]pyridin-6-yl)-2,3-dihydro-1,4-benzoxazepin-4(5H)-yl]-7-ethyl-5,6,7,8-tetrahydroquinazolin-2-amine]"
≤ 0.1,≤ 0.1,"Nc1ncc(C(F)(F)F)c(N2CCOc3ccc(-c4cnc5sc(N)nc5c4)cc3C2)n1 [Compound 78, 6-{4-[2-amino-5-(trifluoromethyl)pyrimidin-4-yl]-2,3,4,5-tetrahydro-1,4-benzoxazepin-7-yl}[1,3]thiazolo[5,4-b]pyridin-2-amine]"
0.1 to 0.5,≤ 0.1,"CNc1nc(N)nc(N2CCOc3ccc(-c4cnc5sc(N)nc5c4)cc3C2)c1C [Compound 63, 6-[7-(2-amino[1,3]thiazolo[5,4-b]pyridin-6-yl)-2,3-dihydro-1,4-benzoxazepin-4(5H)-yl]-N~4~,5-dimethylpyrimidine-2,4-diamine]"
≤ 0.1,≤ 0.1,"CC(O)c1c(Cl)nc(N)nc1N1CCOc2ccc(-c3cnc4sc(N)nc4c3)cc2C1 (stereo not shown) [Compound 53, 1-{2-amino-4-[7-(2-amino[1,3]thiazolo[5,4-b]pyridin-6-yl)-2,3-dihydro-1,4-benzoxazepin-4(5H)-yl]-6-chloropyrimidin-5-yl}ethanol]"
≤ 0.1,≤ 0.1,"CC1(C)CCc2nc(N)nc(N3CCOc4ccc(-c5cnc6sc(N)nc6c5)cc4C3)c2C1 [Compound 61, 4-[7-(2-amino[1,3]thiazolo[5,4-b]pyridin-6-yl)-2,3-dihydro-1,4-benzoxazepin-4(5H)-yl]-6,6-dimethyl-5,6,7,8-tetrahydroquinazolin-2-amine]"
0.1 to 0.5,0.1 to 0.5,"Nc1nc(Cl)cc(N2CCOc3ccc(-c4cnc5sc(N)nc5c4)cc3C2)n1 [Compound 16, 6-[4-(2-amino-6-chloropyrimidin-4-yl)-2,3,4,5-tetrahydro-1,4-benzoxazepin-7-yl][1,3]thiazolo[5,4-b]pyridin-2-amine]"
≤ 0.1,≤ 0.1,"CC1=Cc2nc(N)nc(N3CCOc4ccc(-c5cnc6sc(N)nc6c5)cc4C3)c2CC1(C)C [Compound 98, 4-[7-(2-amino[1,3]thiazolo[5,4-b]pyridin-6-yl)-2,3-dihydro-1,4-benzoxazepin-4(5H)-yl]-6,6,7-trimethyl-5,6-dihydroquinazolin-2-amine]"
≤ 0.1,≤ 0.1,"Cc1nc(CN(C)C)nc(N2CCOc3ccc(-c4cnc5sc(N)nc5c4)cc3C2)c1-c1ccccc1 [Compound 37, 6-(4-{2-[(dimethylamino)methyl]-6-methyl-5-phenylpyrimidin-4-yl}-2,3,4,5-tetrahydro-1,4-benzoxazepin-7-yl)[1,3]thiazolo[5,4-b]pyridin-2-amine]"
